Reference: paper PMC7823661 (Viruses, 2020)
Where a name gives a salt, the structure may show the parent alone.

Columns and labels:
[1] = Cytotoxicity assay (PrestoBlue) in mock-infected cervical cells; format: cell-based; conditions: human
[2] = test system: Brazilian ZIKV strain (ZIKV-BR) in cervical cells; experiment: Plaque-forming reduction assay, supernatants of infected cervical cells; format: cell-based, Zika virus; conditions: for inhibition at 6 µM / inhibition at 12 µM / inhibition at 25 µM / EC50 / EC90: Zika virus; for inhibition at 6 µM: MOI 10, 6 µM; for inhibition at 6 µM / inhibition at 12 µM / inhibition at 25 µM: read-out: Cervical cells PFR (%); for inhibition at 25 µM: MOI 10, 25 µM; for EC50 / EC90: plaque-forming reduction, MOI 10, 48 h
[3] = test system: Brazilian ZIKV strain (ZIKV-BR) in cervical cells; experiment: Viral genome detection by RT-qPCR in supernatants of infected cervical cells; format: cell-based, Zika virus; conditions: supernatant of cervical cells; for reduction of viral load: 12 µM, compared to control; for ZIKV genome copies/mL: MOI 10, 12 µM, 48 h, control 6.7 ± 0.7 × 10^8
[4] = Cytotoxicity assay (PrestoBlue) in mock-infected Vero cells; format: cell-based; conditions: African green monkey, Vero cells (kidney)
[5] = test system: Brazilian ZIKV strain (ZIKV-BR) in Vero cells; experiment: Plaque-forming reduction assay, supernatants of infected Vero cells; format: cell-based, Zika virus; conditions: MOI 1, 12 µM, 48 h; for inhibition at 12 µM: Zika virus, read-out: Vero cells PFR (%)
[6] = test system: Brazilian ZIKV strain (ZIKV-BR) in cervical cells; format: cell-based, Zika virus; conditions: ZIKV-BR MOI 10, 12 µM, 48 h, versus 0.12% DMSO
[7] = test system: baby hamster kidney cells (BHK-21); conditions: cited from earlier work
[8] = test system: ZIKV strain MR766 in Vero cells; design: method as in earlier work; conditions: cited from earlier work
[9] = test system: ZIKV-BR in Vero cells; conditions: read-out: concentration giving 50% of viral inhibition, MOI 0.1; cited from earlier work
[10] = test system: P. falciparum W2-chloroquine-resistant clone; conditions: in vitro, read-out: IC50 antiplasmodial; cited from earlier work
[11] = C33-A cervical epithelial cells (mock-infected), mock-infected cervical cells, 48 h, PrestoBlue, read-out: CC50 (μM)/48 h Cervical

Compound | CC50 at 48 h [1, 11] [µM] | inhibition at 6 µM ([2]; 48 h, 48 h) [%] | inhibition at 12 µM ([2]; 48 h, MOI 10, 12 µM, 48 h) [%] | inhibition at 25 µM ([2]; 48 h, 48 h) [%] | EC50 [2] [µM] | EC90 [2] [µM] | reduction of viral load [3] [logs] | ZIKV genome copies/mL [3] | CC50 at 48 h [4] [µM] | inhibition at 12 µM [5] [%] | Cervical cells IS (selectivity index, CC50/EC50) [2] | reduction of infected cells [6] | CC50 at 48 h [1] [µM] | Cervical cells PFR (%) ([2]; MOI 10, 12 µM, 48 h) | CC50 [7] [µM] | EC50 [8] [µM] | Vero cells PFR (%) [5] [%] | EC50 [9] [µM] | IC50 [10] [µM]
Cc1ccc(S(=O)(=O)NCCCNc2ccnc3cc(Cl)ccc23)cc1 [C-Sd1, N-(3-((7-chloroquinolin-4-yl)amino)propyl)-4-methyl-benzenesulfonamide] | 130 ± 2 | 75.3 ± 1.3 | 94.2 ± 0.5 | 100 | 3.6 ± 0.2 | 9.6 ± 0.6 | 2 | 1.0 ± 0.1 × 10^6 copies/mL | 97 ± 0.5 | 100 |  |  |  |  |  |  |  |  | 
O=S(=O)(NCCCNc1ccnc2cc(Cl)ccc12)c1ccc(Br)cc1 [C-Sd2, 4-Bromo-N-(3-((7-chloroquinolin-4-yl)amino)propyl)-benzenesulfonamide] | 112 ± 1.8 | 80.8 ± 0.8 | 93.7 ± 0.3 | 100 | 3.3 ± 0.2 | 7.8 ± 0.4 | 2 | 2.8 ± 0.4 × 10^6 copies/mL | 56.7 ± 0.4 | 100 |  |  |  |  |  |  |  |  | 
O=S(=O)(NCCCNc1ccnc2cc(Cl)ccc12)c1ccc(F)cc1 [C-Sd3, N-(3-((7-chloroquinolin-4-yl)amino)propyl)-4-fluorobenzenesulfonamide] | > 200 | 75 ± 1 | 94 ± 0.7 | 100 | 3.7 ± 0.1 | 10.1 ± 0.1 | 2 | 4.9 ± 0.3 × 10^6 copies/mL | 141 ± 4.4 | 100 |  |  |  |  |  |  |  |  | 
O=S(=O)(NCCCCNc1ccnc2cc(Cl)ccc12)c1ccccc1 [C-Sd4, N-(4-((7-chloroquinolin-4-yl)amino)butyl)-benzenesulfonamide] | > 200 | 56.6 ± 0.5 | 92.5 ± 0.2 | 100 | 5 ± 0.2 | 11.6 ± 0.1 | 2 | 5.1 ± 0.6 × 10^6 copies/mL | 143 ± 1.3 | 100 |  |  |  |  |  |  |  |  | 
O=S(=O)(NCCCCNc1ccnc2cc(Cl)ccc12)c1ccc(Cl)cc1 [C-Sd5, 4-Chloro-N-(4-((7-chloroquinolin-4-yl)amino)butyl)-benzenesulfonamide] | > 200 | 82.3 ± 0.3 | 99.5 ± 0.2 | 100 | 3.2 ± 0.1 | 7.2 ± 0.1 | 3 | 2.0 ± 0.4 × 10^5 copies/mL | 52.2 ± 3.2 | 100 | > 62.5 |  |  |  |  |  |  |  | 
O=S(=O)(NCCCCNc1ccnc2cc(Cl)ccc12)c1ccc(Br)cc1 [C-Sd6, 4-Bromo-N-(4-((7-chloroquinolin-4-yl)amino)butyl)-benzenesulfonamide] | > 200 | 82 ± 0.5 | 94.8 ± 0.5 | 100 | 3.3 ± 0.1 | 7.4 ± 0.2 | 3 | 2.0 ± 0.2 × 10^5 copies/mL | 43.2 ± 0.4 | 100 | > 60.6 | over 88% |  |  |  |  |  |  | 
O=S(=O)(NCCCCNc1ccnc2cc(Cl)ccc12)c1ccc(F)cc1 [C-Sd7, N-(4-((7-chloroquinolin-4-yl)amino)butyl)-4-fluorobenzenesulfonamide] | > 200 | 75.1 ± 0.8 | 94.7 ± 0.7 | 100 | 3.6 ± 0.1 | 9.9 ± 0.2 | 2 | 2.6 ± 0.5 × 10^6 copies/mL | 74.8 ± 1.2 | 100 |  |  |  |  |  |  |  |  | 
OC(c1cc(C(F)(F)F)nc2c(C(F)(F)F)cccc12)C1CCCCN1 [Mefloquine, (R)-(2.8-bis(trifluoromethyl)quinolin-4-yl)((S)-piperidin-2-yl)methanol hydrochloride, reference compound] |  | 97.7 ± 0.3 | 100 |  | 1.6 ± 0.1 | 3.5 ± 0.2 |  | 2.0 ± 0.6 × 10^5 copies/mL | 26.7 ± 0.9 | 100 | 30.5 | 96.3% ± 3.7 | 48.8 ± 0.2 | 100 | 17.7 ± 3.5 | 3.9 ± 0.2 | 100 |  | 
CCN(CC)CCCC(C)Nc1ccnc2cc(Cl)ccc12 (centres unmarked) [chloroquine] |  |  |  |  |  |  |  |  |  |  |  |  |  |  |  |  |  | 12 ± 3.2 | 
COc1ncnc(NS(=O)(=O)c2ccc(N)cc2)c1OC [sulfadoxine] |  |  |  |  |  |  |  |  |  |  |  |  |  |  |  |  |  |  | > 15.5
